Experiments:
TauP301L-BiFC mice [1] = test: Rota-rod test (motor ability) in 4R TauP301L-BiFC mouse model; type: in vivo
Protocol: • (1) After carrying out adaptation training for 3 days, a behavior experiment was performed on day 4. • (2) 1 hour before the experiment, a time for adaptation of experimental mice in a space where the behavior experiment is conducted, should be ensured. • (3) During the period for adaptation training, each mouse is forced to walk on a treadmill for 360 seconds at a speed of 5 rpm, 15 rpm, 20/25 rpm. Here, an experimental mouse losing a balance and fallen to the floor was forced to walk again. • (4) After the adaptation training, the behavior experiment was conducted by gradually increasing the speed from 5 rpm to 35 rpm for 480 seconds. When the treadmill worked, a time (seconds) taken until the experimental mouse lost the balance and fallen to the floor was measured.
Results of evaluating motor ability improvement efficacy through a Rota-rod test in a 4R TauP301L-BiFC mouse model were shown in Table 4 below and FIG. 2. Using a TauP301L-BiFC mouse model including 7- to 12-month-old mice administered with the drug for 5 months, the experiment was conducted. The results were analyzed through bidirectional ANOVA using Tukey's multiple-comparisons (*p<0.05; **p<0.01; n.s.: Insignificant for vehicle).

[2] = test system: AT8 (phospho-Tau S202/T205); test: AT8 immunofluorescent staining of brain tissues (tau hyperphosphorylation); type: in vivo, mouse
From the text: • 1) Experimental method for brain tissue sampling • (1) On day 1, after completing 63 times administration schedule, the mice of TauP301L-BiFC mouse model were anesthetized, followed by preparing heart laparotomy. • (2) Saline was introduced into the heart of each mouse in the TauP301L-BiFC mouse model, followed by removing vivo blood using a perfusion pump machine. • (3) The brain of the mouse was extracted and weighed. • (4) The brain to be used for tissue staining experiment was immersed in 4% FPA solution and fixed for 24 hours. • (5) On day 2, after completing fixation, the brain tissues were immersed in 20% sucrose solution to remove water for 24 hours. • (6) On day 3, the brain tissues were immersed in 30% sucrose solution to remove water for 48 hours. • (7) On day 5, the brain tissues free of water were taken and extra moisture was removed. Then, the brain tissues and a frozen tissue embedding agent (OCT compound) were placed in a prepared mold, followed by freezing the brain tissues as fast as possible while protecting the tissues. The frozen brain tissue-containing mold was stored in a defreezer at -80°C. Thereafter, using a cryostat for frozen fragment, the tissues were cut into a unit thickness of 30 µm and stored in 0.05% sodium azide solution.
• (1) On day 1, a brain tissue sample having a thickness of 30 µm under cryosection was selected for each brain region, immersed in PBS solution, and then washed three times for 10 minutes. • (3) The sample was fixed in 3.7% formaldehyde for 5 minutes. • (4) The sample was washed in PBS solution three times for 10 minutes. • (5) The brain tissue sample was subjected to permeabilization in 0.3% PBS-T solution. • (6) The sample was immersed in 5% BSA in PBS solution for 1 hour for blocking. • (7) The brain tissues were input into 3% BSA in which primary antibody (AT8) was diluted at a ratio of 1:200, 0.1% Tween-20 in PBS solution, followed by overnight (O/N) binding. • (8) On day 2, the brain tissues were immersed in PBS solution, and washed three times for 10 minutes. • (9) The brain tissues were input into 3% BSA in which secondary antibody was diluted at a ratio of 1:500, 0.1% Tween-20 in PBS solution, followed by binding at room temperature for 1 hour. • (10) The brain tissues were immersed in PBS solution, and washed once for 10 minutes. • (11) The brain tissues were immersed in Hoechst (stock conc., 1mg/mL) diluted at a ratio of 1:2000 in PBS solution, followed by nuclei staining. • (12) The brain tissues were immersed in PBS solution, and washed three times for 10 minutes. • (13) Brain tissue fluorescent imaging was performed using a slide scanner.
• (1) In order to obtain fluorescent images of the stained brain tissues, a brain tissue slide was scanned using Zeiss Axio Scan (Zeiss, Oberkochen, Germany). • BiFC fluorescence: λex=460-490 nm, λem=500-550 nm • AT8 fluorescence: λex=620-640 nm, λem=650-700 nm • Hoechst fluorescence: λex=330-375 nm, λem=430-470 nm • (3) For brain tissues per site obtained through imaging, fluorescent value was calculated through Image J software (NIH).

TauP301L-BiFC mice [3] = test: Novel object recognition test (cognitive ability) in 4R TauP301L-BiFC mouse model; type: in vivo; details: LMTM 15 mg/kg; mice administered 62 times; FIG. 3
Protocol: • (1) On day 1, adaptation training to a new open space was conducted. After an adaptation time for two similar objects added to the corresponding open space on day 2, an experiment to evaluate a cognitive ability to the newly replaced object on day 3 was conducted. • (2) 1 hour before the experiment, a time for adaptation of experimental mice in a space wherein the behavior experiment is conducted, should be ensured. • (3) On day 1, after exposing the experimental mouse to an open space in a size of 40 x 40 cm, the mouse was subjected to behavior assessment for 10 minutes. • (4) On day 2, two similar objects were placed in the same open space, followed by enabling the mouse to learn the objects for 10 minutes. • (5) On day 3, one among the two objects learned in the same open space was replaced with a new object. At this time, a cognitive ability to the replaced object was evaluated.
Results of evaluating the cognitive ability improvement efficacy through a novel object recognition test in the 4R TauP301L-BiFC mouse model were shown in FIG. 3. The experiment was conducted using the TauP301L-BiFC mouse model including 7- to 12-month-old mice administered with the drug for 5 months. […] The obtained results were analyzed through bidirectional ANOVA using Sidak's multiple comparisons test (*p<0.05; ***p<0.0001).

[4] = LMTM 15 mg/kg oral vs. vehicle, decrease (in parentheses)
[5] = LMTM 15 mg/kg oral vs. vehicle, decrease (in parentheses), *p<0.05

Question: `CN(C)c1ccc2c(c1)Sc1cc(N(C)C)ccc1N2.CS(=O)(=O)O.CS(=O)(=O)O` [LMTM] was tested. Which “Duration (Rota-rod test on 11.9 months)” value (TauP301L-BiFC mice [1]; LMTM 15 mg/kg oral vs. vehicle, improvement) did it give?
Answer: 57%

Question: And the “exercise performance (Rota-rod treadmill), in words” value (TauP301L-BiFC mice [1]; LMTM 15 mg/kg vs. vehicle, mice administered 59 times)?
Answer: exercise performance tended to improve, however, did not show a significant difference

Question: And the “AT8 fluorescent level, Somatosensory cortex” value [2, 4]?
Answer: (31 %)

Question: What about the “AT8 fluorescent level, Substantia nigra” value [2, 4] of the same molecule?
Answer: (16 %)

Question: What about the “AT8 fluorescent level, Hippocampus” value [2, 5] of the same molecule?
Answer: (28 %)*

Question: And the “AT8 fluorescent level, Motor cortex” value [2, 5]?
Answer: (26 %)*

Question: What about the “AT8 fluorescent level as compared to the vehicle group, in words” value ([2]; LMTM 15 mpk) of the same molecule?
Answer: significantly reduced in the somatosensory cortex, motor cortex and hippocampus regions

Question: And the “cognitive ability for the new object (novel object recognition test), in words” value (TauP301L-BiFC mice [3])?
Answer: significantly improved
